Laboratory results: patent US20230027026A1, “FUSED PYRIMIDINE COMPOUNDS, COMPOSITIONS AND MEDICINAL APPLICATIONS THEREOF” (JUBILANT BIOSYS LIMITED, priority 2019, published 2023)
Read-outs that look alike come from different tables or passages of the source.

Tests used:
Type in all cases: cell-based
[1] = biological target: EGFR (A767_dupASV) expressing Ba/F3 stable cell line (Homo sapiens, UniProt P00533, DUP767-769, cells depend on it); assay: Cellular proliferation (Alamar Blue) assay, EGFR A767_dupASV Ba/F3; details: EGFR A767_dupASV Ba/F3, 72 hr, read-out: A767 IC50
Sequence of EGFR (A767_dupASV) expressing Ba/F3 stable cell line (P00533 with tags, fused parts or gaps DUP767-769): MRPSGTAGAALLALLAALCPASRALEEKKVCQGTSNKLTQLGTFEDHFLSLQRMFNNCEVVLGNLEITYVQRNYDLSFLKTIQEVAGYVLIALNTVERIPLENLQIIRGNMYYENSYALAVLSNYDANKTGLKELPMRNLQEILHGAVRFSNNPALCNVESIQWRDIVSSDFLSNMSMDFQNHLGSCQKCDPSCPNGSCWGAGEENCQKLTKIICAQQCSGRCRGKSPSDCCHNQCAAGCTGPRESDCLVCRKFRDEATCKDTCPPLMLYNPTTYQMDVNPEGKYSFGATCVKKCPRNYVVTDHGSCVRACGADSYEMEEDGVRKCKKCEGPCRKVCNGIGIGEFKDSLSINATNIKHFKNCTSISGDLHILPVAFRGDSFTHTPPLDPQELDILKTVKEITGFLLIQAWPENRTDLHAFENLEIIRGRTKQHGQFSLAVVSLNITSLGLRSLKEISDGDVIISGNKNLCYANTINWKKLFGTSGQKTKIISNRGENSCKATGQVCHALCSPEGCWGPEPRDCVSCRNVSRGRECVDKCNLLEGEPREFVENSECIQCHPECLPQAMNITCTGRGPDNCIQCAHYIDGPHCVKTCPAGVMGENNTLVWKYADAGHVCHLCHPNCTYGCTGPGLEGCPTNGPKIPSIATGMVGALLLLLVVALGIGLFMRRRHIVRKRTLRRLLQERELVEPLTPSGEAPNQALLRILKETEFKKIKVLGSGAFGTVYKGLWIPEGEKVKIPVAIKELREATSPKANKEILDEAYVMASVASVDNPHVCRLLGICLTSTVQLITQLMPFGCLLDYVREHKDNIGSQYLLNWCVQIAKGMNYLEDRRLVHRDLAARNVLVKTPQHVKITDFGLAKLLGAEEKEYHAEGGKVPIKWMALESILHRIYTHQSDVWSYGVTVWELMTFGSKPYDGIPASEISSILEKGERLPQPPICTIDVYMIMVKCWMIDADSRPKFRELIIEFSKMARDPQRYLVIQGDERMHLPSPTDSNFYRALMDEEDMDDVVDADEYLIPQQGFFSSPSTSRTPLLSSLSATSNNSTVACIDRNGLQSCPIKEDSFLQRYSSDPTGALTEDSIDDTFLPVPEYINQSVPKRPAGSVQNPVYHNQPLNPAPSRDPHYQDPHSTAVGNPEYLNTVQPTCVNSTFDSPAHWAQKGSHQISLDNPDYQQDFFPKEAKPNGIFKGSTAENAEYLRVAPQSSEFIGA
Method: (§1) Example 3: Cellular Proliferation (Alamar Blue) Assays
(§2) • 1. EGFR(D770_N771insSVD) expressing Ba/F3 stable cell line • 2. EGFR (A767_dupASV) expressing Ba/F3 stable cell line • 3. A431 cells • 4. BTER2 (A775_G776insYVMA) expressing Ba/F3 stable cell line • 5. BTER2 (WT) expressing Ba/F3 stable cell line • 6. BT-474 cells
(§3) • 1. Seed cells at 5000 for A431 and 15,000 cells for Ba/F3 in 100 μL/well in complete media (for A431: DMEM with 10% FBS and for Ba/F3 cells: RPMI with 10% FBS) in 96-well tissue culture plate. Leave outer wells without cells for background measurements. Incubate at 37 degree Celsius in 5% CO2 humidified incubator for 16-18 hours. • 2. Add 0.025 ml of 5× concentration compound dilution or DMSO control. Final compound concentration range is 10-0.0005 μM prepared in 3-fold serial dilutions. Incubate for 72 hr at 37 degree Celsius in […] humidified incubator. • 3. Add 0.0125 mL Alamar Blue™ reagent to each well with multi-channel pipette and tap gently on each side of the plate to mix. Incubate for 3 hours at 37 degree Celsius in […] humidified incubator. • 4. Read plates on fluorescence reader (Tecan Spark Control, Device: Spark, Serial #: 1801006040) at 540 nm excitation, 590 nm emission wavelength. • 5. Data analysis was performed using XLfit 5.5.0.5.

A431 cells = assay: Cellular proliferation (Alamar Blue) assay, A431; details: Homo sapiens
Method: as §1, §2, §3

[2] = biological target: EGFR(D770_N771insSVD) expressing Ba/F3 stable cell line (Homo sapiens, UniProt P00533, DUP768-770, cells depend on it); assay: Cellular proliferation (Alamar Blue) assay, EGFR D770_N771insSVD Ba/F3; details: EGFR D770_N771insSVD Ba/F3, 72 hr, read-out: D770 IC50
Sequence of EGFR(D770_N771insSVD) expressing Ba/F3 stable cell line (P00533 with tags, fused parts or gaps DUP768-770): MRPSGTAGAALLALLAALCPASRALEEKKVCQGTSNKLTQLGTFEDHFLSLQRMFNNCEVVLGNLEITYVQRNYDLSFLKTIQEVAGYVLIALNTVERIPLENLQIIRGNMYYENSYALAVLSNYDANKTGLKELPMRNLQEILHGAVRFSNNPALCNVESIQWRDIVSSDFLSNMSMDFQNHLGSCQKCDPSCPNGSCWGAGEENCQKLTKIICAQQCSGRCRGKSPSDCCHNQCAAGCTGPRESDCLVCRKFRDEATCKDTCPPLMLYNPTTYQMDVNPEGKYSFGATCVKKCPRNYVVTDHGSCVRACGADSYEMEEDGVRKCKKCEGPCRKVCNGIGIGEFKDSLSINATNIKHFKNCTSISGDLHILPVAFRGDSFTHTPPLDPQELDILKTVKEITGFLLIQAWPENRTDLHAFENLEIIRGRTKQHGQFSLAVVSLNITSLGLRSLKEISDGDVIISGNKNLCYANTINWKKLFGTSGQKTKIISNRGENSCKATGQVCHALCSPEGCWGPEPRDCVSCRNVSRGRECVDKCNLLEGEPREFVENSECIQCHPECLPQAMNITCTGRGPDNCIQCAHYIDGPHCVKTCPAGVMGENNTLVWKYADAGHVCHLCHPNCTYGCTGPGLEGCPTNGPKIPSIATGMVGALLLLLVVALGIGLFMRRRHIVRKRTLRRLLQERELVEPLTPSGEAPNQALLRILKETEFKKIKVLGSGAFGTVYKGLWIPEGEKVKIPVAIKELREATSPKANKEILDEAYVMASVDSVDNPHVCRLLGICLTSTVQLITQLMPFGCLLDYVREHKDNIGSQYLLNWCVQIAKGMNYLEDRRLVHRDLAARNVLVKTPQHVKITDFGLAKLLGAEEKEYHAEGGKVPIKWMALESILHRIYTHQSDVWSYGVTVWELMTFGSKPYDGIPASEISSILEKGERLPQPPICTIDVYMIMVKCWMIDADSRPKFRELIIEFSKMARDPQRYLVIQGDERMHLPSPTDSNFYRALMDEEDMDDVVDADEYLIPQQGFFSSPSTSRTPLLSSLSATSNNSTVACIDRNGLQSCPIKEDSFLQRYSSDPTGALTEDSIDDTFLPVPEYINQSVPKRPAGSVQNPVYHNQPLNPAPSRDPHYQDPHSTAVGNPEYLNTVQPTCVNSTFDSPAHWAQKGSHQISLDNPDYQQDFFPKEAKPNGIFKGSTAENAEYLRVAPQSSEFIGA
Method: as §1, §2, §3

[3] = A-431, 72 h, read-out: A431 IC50 (nM)
[4] = A-431, A431 cells, 72 hr, Alamar Blue, read-out: A431 IC50

Row | GI50 [1] [nM] | GI50 [2] [nM] | IC50 (A431 cells; [4]) [nM] | SMILES | IC50 (A431 cells; [3]) [nM]
1 | 244 | 341 | ≥ 10000 | CN(C)C/C=C/C(=O)Nc1cccc(N2C(=O)N(Cc3ccccc3)Cc3cnc(Nc4ccn(C)n4)nc32)c1 [Compound 52, (E)-N-(3-(3-benzyl-7-((1-methyl-1H-pyrazol-3-yl)amino)-2-oxo-3,4-dihydropyrimido[4,5-d]pyrimidin-1(2H)-yl)phenyl)-4-(dimethylamino)but-2-enamide] | 
2 | 474 | 1050 | ≥ 10000 | CN(C)C/C=C/C(=O)Nc1cccc(N2C(=O)N(Cc3ccccc3)Cc3cnc(Nc4cnc5c(cnn5C)c4)nc32)c1 [Compound 53, (E)-N-(3-(3-benzyl-7-((1-methyl-1H-pyrazolo[3,4-b]pyridin-5-yl)amino)-2-oxo-3,4-dihydropyrimido[4,5-d]pyrimidin-1(2H)-yl)phenyl)-4-(dimethylamino)but-2-enamide] | 
3 | 224 | 337 | ≥ 10000 | CN(C)C/C=C/C(=O)Nc1cccc(N2C(=O)N(Cc3ccccc3)Cc3cnc(Nc4ccc(N5CCOCC5)nc4)nc32)c1 [Compound 54, (E)-N-(3-(3-benzyl-7-((6-morpholinopyridin-3-yl)amino)-2-oxo-3,4-dihydropyrimido[4,5-d]pyrimidin-1(2H)-yl)phenyl)-4-(dimethylamino)but-2-enamide] | 
4 | 1670 | 3860 | ≥ 10000 | CN(C)C/C=C/C(=O)Nc1cccc(N2C(=O)N(Cc3ccccc3)Cc3cnc(Nc4cnc(N5CCOCC5)nc4)nc32)c1 [Compound 55, (E)-N-(3-(3-benzyl-7-((2-morpholinopyrimidin-5-yl)amino)-2-oxo-3,4-dihydropyrimido[4,5-d]pyrimidin-1(2H)-yl)phenyl)-4-(dimethylamino)but-2-enamide] | 
5 | 65 | 107 | ≥ 10000 | COc1nn(C)cc1Nc1ncc2c(n1)N(c1cccc(NC(=O)/C=C/CN(C)C)c1)C(=O)N(Cc1ccccc1)C2 [Compound 56, (E)-N-(3-(3-benzyl-7-((3-methoxy-1-methyl-1H-pyrazol-4-yl)amino)-2-oxo-3,4-dihydropyrimido[4,5-d]pyrimidin-1(2H)-yl)phenyl)-4-(dimethylamino)but-2-enamide] | 
6 | 115 | 476 | ≥ 10000 | CN(C)C/C=C/C(=O)Nc1cccc(N2C(=O)N(Cc3ccc(F)cc3)Cc3cnc(Nc4cn(C)nc4Cl)nc32)c1 [Compound 57, (E)-N-(3-(7-((3-chloro-1-methyl-1H-pyrazol-4-yl)amino)-3-(4-fluorobenzyl)-2-oxo-3,4-dihydropyrimido[4,5-d]pyrimidin-1(2H)-yl)phenyl)-4-(dimethylamino)but-2-enamide] | 
7 | 801 | 2110 | ≥ 10000 | CN(C)C/C=C/C(=O)Nc1cccc(N2C(=O)N(Cc3ccccc3)Cc3cnc(Nc4cnoc4)nc32)c1 [Compound 58, (E)-N-(3-(3-benzyl-7-(isoxazol-4-ylamino)-2-oxo-3,4-dihydropyrimido[4,5-d]pyrimidin-1(2H)-yl)phenyl)-4-(dimethylamino)but-2-enamide] | 
8 | 8660 | ≥ 10000 | ≥ 10000 | CN(C)C/C=C/C(=O)Nc1cccc(N2C(=O)N(Cc3ccccc3)Cc3cnc(Nc4cnc(N5CCN(C)CC5)nc4)nc32)c1 [Compound 59, (E)-N-(3-(3-benzyl-7-((2-(4-methylpiperazin-1-yl)pyrimidin-5-yl)amino)-2-oxo-3,4-dihydropyrimido[4,5-d]pyrimidin-1(2H)-yl)phenyl)-4-(dimethylamino)but-2-enamide] | 

Row | SMILES | GI50 [1] [nM] | GI50 [2] [nM] | IC50 (A431 cells; [4]) [nM] | IC50 (A431 cells; [3]) [nM]
9 | C[C@H](c1ccccc1)N1Cc2cnc(Nc3cnn(C)c3)nc2N(c2cccc(NC(=O)/C=C/CN(C)C)c2)C1=O (single isomer, unassigned) [Compound 133] | 1120 | 2690 |  | ≥ 10000
10 | C[C@@H](c1ccccc1)N1Cc2cnc(Nc3cnn(C)c3)nc2N(c2cccc(NC(=O)/C=C/CN(C)C)c2)C1=O (single isomer, unassigned) [Compound 134] | 109 | 103 |  | ≥ 10000
